Results reported in publication PMC7011873, “LC-MS–MS and GC-MS analyses of biologically active extracts and fractions from Tunisian Juniperus phoenice leaves” (Pharmaceutical Biology, 2016).

Legend:
[1] = DPPH radical-scavenging effect assay; conditions: 30 min incubation at room temperature, absorbance at 517 nm
Experimental: DPPH (1,1-diphenyl-2-picrylhydrazyl) radical-scavenging effect was evaluated following the procedure described in a previous study (Feki et al. [2005]). Various concentrations of extracts and fractions (5 μL) dissolved in methanol were added to 5 mL of a 0.004% methanol solution of DPPH. After a 30 min incubation period at room temperature, the absorbance was read against a blank at 517 nm. Inhibition of free radical, DPPH, in percent (I%) was calculated as follows: I% = (Ablank-Asample/Ablank)×100 where Ablank is the absorbance of the control reaction (containing all reagents except the studied sample) and Asample is the absorbance of the studied sample. Extract concentration providing 50% inhibition (IC50) was calculated from the graph plotted of inhibition percentage against extract concentration. The synthetic antioxidant reagents BHT and vitamin E were used as positive control and all tests were carried out in triplicate.

[2] = molecular target: T1, porcine pancreatic α-amylase (PPA) (Sus scrofa, UniProt P00690); assay: α-Amylase inhibition assay by CNPG3 method; type: biochemical
T1 construct: purchased Sigma-Aldrich (St. Louis, MO)
T1 sequence (P00690 16-511): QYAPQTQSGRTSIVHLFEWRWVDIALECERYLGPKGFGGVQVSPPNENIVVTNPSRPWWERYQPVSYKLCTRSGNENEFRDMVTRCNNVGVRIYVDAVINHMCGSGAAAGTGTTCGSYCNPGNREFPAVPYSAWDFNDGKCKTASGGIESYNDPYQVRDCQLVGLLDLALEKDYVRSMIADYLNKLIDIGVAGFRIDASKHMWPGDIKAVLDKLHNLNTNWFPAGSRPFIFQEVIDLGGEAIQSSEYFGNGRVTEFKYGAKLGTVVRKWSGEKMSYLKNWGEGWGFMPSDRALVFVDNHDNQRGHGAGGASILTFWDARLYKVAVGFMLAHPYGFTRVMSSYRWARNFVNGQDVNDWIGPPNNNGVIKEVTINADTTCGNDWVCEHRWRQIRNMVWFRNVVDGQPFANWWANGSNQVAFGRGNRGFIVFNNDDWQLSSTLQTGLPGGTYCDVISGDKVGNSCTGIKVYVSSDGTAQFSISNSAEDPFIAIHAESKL
Experimental: The studied sample was dissolved in DMSO to give concentrations of 50, 100, and 200 mg/mL. The enzyme solution was prepared by mixing α-amylase in 100 mL of 40 mM phosphate buffer, pH 6.9. The assays were measured by mixing 80 mL of the studied sample, 20 mL of α-amylase solution, and 1 mL of 2-chloro-4-nitrophenol-α-D-maltotrioside (CNPG3). The mixture was incubated at 37 °C for 5 min. The absorbance was measured at 405 nm spectrophotometrically (Jenway 6405 UV/Visible, Staffordshire, UK). […] Percentage inhibition was calculated by the following expression and all tests were carried out in triplicate: PI = [(AbsorbanceControl-AbsorbanceTest)/AbsorbanceControl] × 100

α-glucosidase = system: α-glucosidase; parameters: method as in Kim et al. ([2000]); conditions: ref Kim et al. ([2000]); cited from earlier work

Row | IC50 [2] [µM] | SMILES | DPPH IC50 [1] [µg/mL] | inhibitory activity against α-glucosidase (α-glucosidase)
1 | 37.9 | O=c1cc(-c2ccc(O)c(-c3c(O)cc(O)c4c(=O)cc(-c5ccc(O)cc5)oc34)c2)oc2cc(O)cc(O)c12 [Amentoflavone] | 14.1 ± 0.4 | relatively important inhibitory activity
2 | – | Cc1cc(C(C)(C)C)c(O)c(C(C)(C)C)c1 [BHT, butylate hydroxytoluene, reference compound] | 18.1 ± 0.2 | –
